The results in this text go back to PMC8014548, “Applying the CiPA approach to evaluate cardiac proarrhythmia risk of some antimalarials used off‐label in the first wave of COVID‐19” (Clinical and Translational Science, 2021).

Where two headings read alike, the source gives them in different places.

Test [1] has as its target T1, Kir2.1 (Homo sapiens, UniProt P63252).
T1 construct: gene KCNJ2; stably expressed in CHO cells; IK1 current; homotetramer
T1 sequence (P63252 1-427): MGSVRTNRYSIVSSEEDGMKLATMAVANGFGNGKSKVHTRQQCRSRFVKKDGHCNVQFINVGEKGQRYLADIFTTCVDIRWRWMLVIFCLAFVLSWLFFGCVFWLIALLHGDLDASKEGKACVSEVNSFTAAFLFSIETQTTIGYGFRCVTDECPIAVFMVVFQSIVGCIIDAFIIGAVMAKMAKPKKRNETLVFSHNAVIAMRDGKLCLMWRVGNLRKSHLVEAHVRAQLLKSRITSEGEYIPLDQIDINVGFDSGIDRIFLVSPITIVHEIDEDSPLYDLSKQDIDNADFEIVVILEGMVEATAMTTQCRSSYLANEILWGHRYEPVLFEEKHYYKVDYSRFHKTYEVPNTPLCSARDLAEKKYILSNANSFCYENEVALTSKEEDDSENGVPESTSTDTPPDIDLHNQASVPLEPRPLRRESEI
Kind of test: automated patch clamp (QPatch). Format: cell-based. The text has this: automated patch clamp (QPatch) on Kir2.1
(In general: The patch-clamp technique gives a direct electrical read-out from membranes.)

A short description of test [2]: automated patch clamp (SyncroPatch […]PE). Type of test: cell-based, Homo sapiens. As to conditions: read-out: CaV1.2 ramp.
Test [3] concerns the target T2, CaV1.2 (coexpressed with β2/α2δ1) (Homo sapiens, UniProt Q13936).
T2 construct: gene CACNA1C; stably expressed in CHO cells with beta2 and alpha2delta1; with Voltage-dependent L-type calcium channel subunit beta-2; Voltage-dependent calcium channel subunit alpha-2/delta-1
Kind of test: automated patch clamp (SyncroPatch […]PE). Format: cell-based. As to conditions: read-out: CaV1.2 peak.

Test [4] concerns the target T3, NaV1.5 (Homo sapiens, UniProt Q14524).
T3 construct: gene SCN5A; stably expressed in CHO cells; no beta subunit mentioned
Nature of the test: automated patch clamp (SyncroPatch […]PE). Type of test: cell-based. As to conditions: read-out: NaV1.5 peak.

Test [5] addresses T4, HCN4 (Homo sapiens, UniProt Q9Y3Q4).
T4 construct: stably expressed in HEK 293 cells; If current; homotetramer
T4 sequence (Q9Y3Q4 1-1203): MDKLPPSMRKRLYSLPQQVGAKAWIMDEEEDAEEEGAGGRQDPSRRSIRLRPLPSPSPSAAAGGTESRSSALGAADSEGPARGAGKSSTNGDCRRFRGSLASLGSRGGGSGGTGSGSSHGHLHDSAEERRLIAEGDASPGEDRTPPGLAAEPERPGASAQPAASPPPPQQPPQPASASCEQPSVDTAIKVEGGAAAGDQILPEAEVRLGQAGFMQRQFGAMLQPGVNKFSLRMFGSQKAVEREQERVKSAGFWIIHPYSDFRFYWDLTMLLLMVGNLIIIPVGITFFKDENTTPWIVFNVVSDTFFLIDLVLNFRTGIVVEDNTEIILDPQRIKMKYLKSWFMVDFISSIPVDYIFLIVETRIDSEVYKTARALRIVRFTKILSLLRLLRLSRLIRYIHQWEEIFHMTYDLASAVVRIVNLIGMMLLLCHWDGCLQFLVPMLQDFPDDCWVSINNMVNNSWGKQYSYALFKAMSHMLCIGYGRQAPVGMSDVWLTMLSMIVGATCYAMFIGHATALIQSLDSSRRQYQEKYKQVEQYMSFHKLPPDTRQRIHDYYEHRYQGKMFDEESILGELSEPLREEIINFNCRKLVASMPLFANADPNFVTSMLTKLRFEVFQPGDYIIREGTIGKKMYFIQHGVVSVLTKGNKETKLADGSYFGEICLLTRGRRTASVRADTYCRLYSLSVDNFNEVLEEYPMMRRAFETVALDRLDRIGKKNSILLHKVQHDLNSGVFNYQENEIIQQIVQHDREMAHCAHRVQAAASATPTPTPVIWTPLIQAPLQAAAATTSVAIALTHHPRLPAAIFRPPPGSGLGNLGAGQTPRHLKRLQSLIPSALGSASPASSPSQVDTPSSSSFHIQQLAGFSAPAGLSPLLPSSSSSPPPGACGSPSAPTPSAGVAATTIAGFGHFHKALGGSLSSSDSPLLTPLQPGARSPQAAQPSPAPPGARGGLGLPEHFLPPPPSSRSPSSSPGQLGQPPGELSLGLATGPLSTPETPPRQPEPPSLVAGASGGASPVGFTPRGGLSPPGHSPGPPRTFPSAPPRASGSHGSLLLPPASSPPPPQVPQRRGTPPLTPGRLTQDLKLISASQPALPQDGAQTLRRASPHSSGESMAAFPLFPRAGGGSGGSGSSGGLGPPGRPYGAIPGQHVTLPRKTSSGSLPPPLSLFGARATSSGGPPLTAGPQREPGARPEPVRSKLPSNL
Kind of test: automated patch clamp (SyncroPatch […]PE). Type of test: cell-based.

Test [6] has as its target T5, KV7.1/minK (Homo sapiens, UniProt P51787).
T5 construct: gene KCNQ1; stably expressed in CHO cells; IKs current
Kind of test: automated patch clamp (SyncroPatch […]PE). Type of test: cell-based.

Test [7] concerns the target T6, hERG (Homo sapiens, UniProt Q12809).
T6 construct: gene KCNH2; stably expressed in CHO cells; IKr current; homotetramer
Nature of the test: automated patch clamp (SyncroPatch […]PE). Format: cell-based.

The nature of test [8]: automated patch clamp (SyncroPatch […]PE). Type of test: cell-based, Homo sapiens. The settings on record: read-out: CaV1.2 ramp. This is another data set of the same source.

T2 sequence (Q13936 whole entry): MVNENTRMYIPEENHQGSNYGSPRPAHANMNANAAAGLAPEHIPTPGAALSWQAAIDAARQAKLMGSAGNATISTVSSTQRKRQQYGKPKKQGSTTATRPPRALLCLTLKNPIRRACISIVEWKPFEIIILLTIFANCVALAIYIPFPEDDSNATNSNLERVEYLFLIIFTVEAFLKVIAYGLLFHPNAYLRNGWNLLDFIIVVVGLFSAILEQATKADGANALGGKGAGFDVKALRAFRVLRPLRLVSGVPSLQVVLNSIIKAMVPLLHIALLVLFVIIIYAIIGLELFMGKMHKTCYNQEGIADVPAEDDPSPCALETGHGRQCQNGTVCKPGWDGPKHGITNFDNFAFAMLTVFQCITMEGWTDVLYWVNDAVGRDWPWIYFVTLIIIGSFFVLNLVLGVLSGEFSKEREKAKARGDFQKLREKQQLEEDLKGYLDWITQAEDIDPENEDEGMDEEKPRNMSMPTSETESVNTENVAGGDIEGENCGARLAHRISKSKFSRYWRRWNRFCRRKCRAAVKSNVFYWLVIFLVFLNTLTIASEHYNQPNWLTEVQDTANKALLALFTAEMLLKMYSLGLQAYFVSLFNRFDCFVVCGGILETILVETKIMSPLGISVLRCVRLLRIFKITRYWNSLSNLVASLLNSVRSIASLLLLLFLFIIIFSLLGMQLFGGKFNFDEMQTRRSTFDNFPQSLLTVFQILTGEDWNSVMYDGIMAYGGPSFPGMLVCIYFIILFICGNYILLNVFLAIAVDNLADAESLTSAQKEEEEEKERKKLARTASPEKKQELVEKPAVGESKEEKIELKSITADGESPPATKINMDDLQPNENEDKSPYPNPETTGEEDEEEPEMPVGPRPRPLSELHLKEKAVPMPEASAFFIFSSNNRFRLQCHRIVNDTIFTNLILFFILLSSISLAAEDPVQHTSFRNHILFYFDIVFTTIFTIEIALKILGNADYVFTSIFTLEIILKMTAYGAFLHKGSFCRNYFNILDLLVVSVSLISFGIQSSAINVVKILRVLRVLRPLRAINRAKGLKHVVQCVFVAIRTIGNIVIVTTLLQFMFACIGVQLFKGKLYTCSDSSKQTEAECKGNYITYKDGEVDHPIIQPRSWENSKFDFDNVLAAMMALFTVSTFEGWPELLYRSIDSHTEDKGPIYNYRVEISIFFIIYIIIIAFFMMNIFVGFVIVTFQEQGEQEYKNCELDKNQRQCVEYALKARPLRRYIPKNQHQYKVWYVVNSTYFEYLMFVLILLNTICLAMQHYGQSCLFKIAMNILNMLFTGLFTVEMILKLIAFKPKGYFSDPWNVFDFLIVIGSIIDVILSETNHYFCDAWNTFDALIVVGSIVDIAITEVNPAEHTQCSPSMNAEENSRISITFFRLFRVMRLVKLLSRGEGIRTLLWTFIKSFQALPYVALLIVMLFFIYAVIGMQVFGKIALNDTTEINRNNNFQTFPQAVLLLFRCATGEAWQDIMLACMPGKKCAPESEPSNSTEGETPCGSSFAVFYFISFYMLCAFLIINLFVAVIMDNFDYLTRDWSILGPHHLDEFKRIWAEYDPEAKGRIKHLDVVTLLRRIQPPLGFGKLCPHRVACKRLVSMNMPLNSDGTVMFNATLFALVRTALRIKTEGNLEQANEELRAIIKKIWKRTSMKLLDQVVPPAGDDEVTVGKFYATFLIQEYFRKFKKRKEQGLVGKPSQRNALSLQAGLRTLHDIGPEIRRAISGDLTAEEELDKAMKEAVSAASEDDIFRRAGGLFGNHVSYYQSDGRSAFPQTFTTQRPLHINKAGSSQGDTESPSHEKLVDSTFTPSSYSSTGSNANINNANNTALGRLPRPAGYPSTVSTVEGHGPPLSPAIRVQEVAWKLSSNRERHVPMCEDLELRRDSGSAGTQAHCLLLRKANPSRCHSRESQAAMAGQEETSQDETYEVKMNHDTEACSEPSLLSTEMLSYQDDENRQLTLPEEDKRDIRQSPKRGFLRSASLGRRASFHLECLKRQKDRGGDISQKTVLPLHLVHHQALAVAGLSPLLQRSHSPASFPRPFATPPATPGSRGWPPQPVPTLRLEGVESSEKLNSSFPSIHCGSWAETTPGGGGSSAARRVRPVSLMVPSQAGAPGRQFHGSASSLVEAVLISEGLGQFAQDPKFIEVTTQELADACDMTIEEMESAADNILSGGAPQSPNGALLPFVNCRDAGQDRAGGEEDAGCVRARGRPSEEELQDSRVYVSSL
T2 sequence (Q08289 whole entry partner): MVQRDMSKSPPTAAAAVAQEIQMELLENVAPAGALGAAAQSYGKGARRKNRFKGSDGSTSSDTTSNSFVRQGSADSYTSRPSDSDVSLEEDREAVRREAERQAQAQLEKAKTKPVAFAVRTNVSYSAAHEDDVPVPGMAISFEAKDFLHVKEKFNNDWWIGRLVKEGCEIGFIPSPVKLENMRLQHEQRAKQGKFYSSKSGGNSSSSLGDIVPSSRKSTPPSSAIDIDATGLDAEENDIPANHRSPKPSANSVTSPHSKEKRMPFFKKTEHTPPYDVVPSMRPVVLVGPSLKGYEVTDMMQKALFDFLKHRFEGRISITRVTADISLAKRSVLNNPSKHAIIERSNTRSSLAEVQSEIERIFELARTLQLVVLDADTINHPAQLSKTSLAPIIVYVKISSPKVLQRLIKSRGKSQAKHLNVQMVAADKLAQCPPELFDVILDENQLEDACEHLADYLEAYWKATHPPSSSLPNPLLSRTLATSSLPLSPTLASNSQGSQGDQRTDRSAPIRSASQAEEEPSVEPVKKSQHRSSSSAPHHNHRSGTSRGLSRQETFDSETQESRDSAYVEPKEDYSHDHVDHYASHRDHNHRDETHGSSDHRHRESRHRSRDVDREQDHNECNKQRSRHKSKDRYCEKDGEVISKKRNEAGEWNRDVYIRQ
T2 sequence (P54289 25-956 partner): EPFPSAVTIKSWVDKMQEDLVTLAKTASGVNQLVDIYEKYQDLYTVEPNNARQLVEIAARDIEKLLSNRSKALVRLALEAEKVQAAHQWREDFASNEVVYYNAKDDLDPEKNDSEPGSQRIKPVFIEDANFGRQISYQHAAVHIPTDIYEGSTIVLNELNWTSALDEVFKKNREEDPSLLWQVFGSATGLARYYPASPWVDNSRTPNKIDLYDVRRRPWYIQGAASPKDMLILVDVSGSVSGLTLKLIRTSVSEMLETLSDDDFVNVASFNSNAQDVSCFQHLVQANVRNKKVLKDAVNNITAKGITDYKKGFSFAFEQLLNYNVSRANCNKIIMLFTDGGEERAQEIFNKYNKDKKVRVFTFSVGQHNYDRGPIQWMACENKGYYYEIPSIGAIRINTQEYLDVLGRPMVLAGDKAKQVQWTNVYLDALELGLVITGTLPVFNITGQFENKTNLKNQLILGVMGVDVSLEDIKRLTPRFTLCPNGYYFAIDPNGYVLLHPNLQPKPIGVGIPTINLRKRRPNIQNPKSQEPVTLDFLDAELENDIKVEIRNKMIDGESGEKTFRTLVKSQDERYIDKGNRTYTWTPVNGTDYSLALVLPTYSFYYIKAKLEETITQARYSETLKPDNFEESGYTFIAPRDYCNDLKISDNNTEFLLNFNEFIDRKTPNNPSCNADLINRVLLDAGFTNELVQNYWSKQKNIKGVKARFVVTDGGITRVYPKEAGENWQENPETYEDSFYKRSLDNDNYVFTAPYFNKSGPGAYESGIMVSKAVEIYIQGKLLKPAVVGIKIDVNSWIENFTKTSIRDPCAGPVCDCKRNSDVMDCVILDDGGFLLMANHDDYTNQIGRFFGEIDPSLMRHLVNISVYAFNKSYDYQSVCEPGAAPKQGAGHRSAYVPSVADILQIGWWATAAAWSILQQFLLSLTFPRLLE
T2 sequence (P54289 957-1103 partner): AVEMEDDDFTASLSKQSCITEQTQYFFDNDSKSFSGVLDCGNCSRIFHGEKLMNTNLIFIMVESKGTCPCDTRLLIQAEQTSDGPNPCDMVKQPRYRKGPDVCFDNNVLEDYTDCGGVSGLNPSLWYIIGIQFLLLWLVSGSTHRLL
T6 sequence (Q12809 whole entry): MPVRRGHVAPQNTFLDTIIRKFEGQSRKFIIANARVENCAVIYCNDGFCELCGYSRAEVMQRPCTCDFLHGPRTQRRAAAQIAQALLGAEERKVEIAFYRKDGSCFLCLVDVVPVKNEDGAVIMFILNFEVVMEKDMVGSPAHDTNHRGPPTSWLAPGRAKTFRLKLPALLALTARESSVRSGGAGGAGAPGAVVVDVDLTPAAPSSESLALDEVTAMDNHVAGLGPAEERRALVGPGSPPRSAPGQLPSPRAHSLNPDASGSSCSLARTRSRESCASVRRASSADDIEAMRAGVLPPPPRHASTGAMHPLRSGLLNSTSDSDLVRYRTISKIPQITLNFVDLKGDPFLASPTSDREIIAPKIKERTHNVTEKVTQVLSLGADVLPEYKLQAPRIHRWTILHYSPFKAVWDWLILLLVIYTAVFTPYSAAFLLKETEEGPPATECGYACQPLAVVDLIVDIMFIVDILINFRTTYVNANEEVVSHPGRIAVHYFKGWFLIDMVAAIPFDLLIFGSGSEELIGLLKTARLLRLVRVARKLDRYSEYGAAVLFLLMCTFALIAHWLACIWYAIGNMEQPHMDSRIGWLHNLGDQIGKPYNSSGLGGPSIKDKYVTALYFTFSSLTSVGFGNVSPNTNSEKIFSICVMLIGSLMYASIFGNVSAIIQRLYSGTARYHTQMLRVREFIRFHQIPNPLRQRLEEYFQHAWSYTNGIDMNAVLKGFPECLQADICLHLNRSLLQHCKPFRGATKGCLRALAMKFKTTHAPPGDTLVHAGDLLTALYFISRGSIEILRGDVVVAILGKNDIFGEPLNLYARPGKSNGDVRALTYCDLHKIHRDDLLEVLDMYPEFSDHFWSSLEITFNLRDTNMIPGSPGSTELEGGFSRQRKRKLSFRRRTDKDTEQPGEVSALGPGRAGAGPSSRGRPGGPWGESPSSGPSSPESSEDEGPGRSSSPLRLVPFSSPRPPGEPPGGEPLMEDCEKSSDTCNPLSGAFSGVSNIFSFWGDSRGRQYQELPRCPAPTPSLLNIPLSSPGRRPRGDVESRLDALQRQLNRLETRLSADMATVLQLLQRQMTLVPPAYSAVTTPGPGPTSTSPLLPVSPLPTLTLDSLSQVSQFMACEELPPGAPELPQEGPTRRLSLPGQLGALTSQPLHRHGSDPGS

Regarding `CCN(CC)CCCC(C)Nc1ccnc2cc(Cl)ccc12` (stereo not shown) [chloroquine], the IC50 in test [1] (read-out: Kir2.1) is 4.98 µM; in test [2] it was above 300 µM; in test [3], 17.9 µM; in test [4], 13.9 µM; in test [5] (read-out: HCN4), 96.2 µM.

For `CC[C@H]1OC(=O)[C@H](C)[C@@H](O[C@H]2C[C@@](C)(OC)[C@@H](O)[C@H](C)O2)[C@H](C)[C@@H](O[C@@H]2O[C@H](C)C[C@H](N(C)C)[C@H]2O)[C@](C)(O)C[C@@H](C)CN(C)[C@H](C)[C@@H](O)[C@]1(C)O` [azithromycin], the IC50 in test [1] (read-out: NaV1.5 late) was above 1000 µM; in test [6] (read-out: NaV1.5 late), above 1000 µM; in test [3], 771 µM; in test [4], 612 µM; in test [7] it was 439 µM; in test [5] (read-out: NaV1.5 late), above 1000 µM.

With `CC[C@H]1OC(=O)[C@H](C)[C@@H](O[C@H]2C[C@@](C)(OC)[C@@H](O)[C@H](C)O2)[C@H](C)[C@@H](O[C@@H]2O[C@H](C)C[C@H](N(C)C)[C@H]2O)[C@](C)(O)C[C@@H](C)C(=O)[C@H](C)[C@@H](O)[C@]1(C)O` [erythromycin], the IC50 in test [6] (read-out: NaV1.5 peak) and in test [5] (read-out: NaV1.5 peak) was above 1000 µM each time.

Consider `CCN(CCO)CCCC(C)Nc1ccnc2cc(Cl)ccc12` (stereo not shown) [hydroxychloroquine], for which the IC50 in test [1] (read-out: NaV1.5 peak) was 44.2 µM; in test [2] it was above 300 µM; in test [3] it was 23.9 µM; in test [4], 17 µM; in test [7] it was 2.66 µM; in test [8], above 300 µM.
